Source: patent US20240246920A1, “TRIAZOLE DERIVATIVES WITH ANTIFUNGAL ACTIVITY” (King's College London, priority 2020, published 2024)
Converted amounts (≈) assume the structure as drawn. Where two headings read alike, the source gives them in different places.

Experiments:
C. albicans NCPF3281 = experiment: Candida panel MIC, serial dilution in 96-well plates; assay type: cell-based, Candida albicans; conditions: NCPF3281, read-out: MIC C. albicans NCPF3281
How it was run: (§1)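 Broth microdilution in RPMI 1640 with 2% glucose and MOPS at pH 7.0, compound 128 to 0.25 μg/mL, inoculum 0.5-5×10^5/mL. Incubation 24 h at 37 °C. MIC is the lowest concentration giving ≥50% growth inhibition versus drug-free control, read at OD530.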

C. krusei NCPF3876 = experiment: microbe, parasite or virus in culture; assay type: cell-based, Candida krusei; conditions: Pichia kudriavzevii
How it was run: (§2)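 MIC taken as lowest concentration inhibiting growth ≥50% relative to drug-free control, from OD530 after 24 hours at 37° C. Fungi at 0.5-5×10^5/mL were exposed to serially diluted compound in RPMI 1640/MOPS/2% glucose medium adjusted to pH 7.0.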

C. parapsilosis NCPF3209 = experiment: microbe, parasite or virus in culture; assay type: cell-based, Candida parapsilosis; conditions: Lodderomyces parapsilosis
How it was run: as §2

Candida auris TDG2211 = experiment: microbe, parasite or virus in culture; assay type: cell-based; conditions: Candidozyma auris
How it was run: (§3)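 Starter cultures grown overnight at 37° C in RPMI 1640/MOPS/2% glucose, pH 7.0; inoculum 0.5-5×10^5/mL with compound serially diluted from DMSO into media.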

Candida auris TDG2506 = experiment: microbe, parasite or virus in culture; assay type: cell-based; conditions: Candidozyma auris
How it was run: as §3

C. auris TDG1912 = experiment: Candida panel MIC, serial dilution in 96-well plates; assay type: cell-based; conditions: Candidozyma auris, TDG1912; Table 4; 24 hours, ≥50% inhibition; read-out: MIC C. auris TDG1912
How it was run: as §1

C. tropicalis NCPF8760 = experiment: as above; assay type: cell-based
How it was run: as §1

Candida auris TDG1102 = experiment: as above; assay type: cell-based; conditions: Candidozyma auris, TDG1102; Table 4, extended panel; 24 hours, ≥50% inhibition; read-out: MIC Candida auris TDG1102
How it was run: as §1

Candida auris TDG2512 = experiment: as above; assay type: cell-based; conditions: Candidozyma auris, TDG2512; Table 4, extended panel; 24 hours, ≥50% inhibition; read-out: MIC Candida auris TDG2512
How it was run: as §1

panel of Candida species = experiment: Candida panel MIC, statements on the whole panel; assay type: cell-based; conditions: in words
Protocol: (§4) The minimum inhibitory concentration of test compounds were determined in a panel of Candida species (see Table 4 below), using the a serial dilution method in 96-well plates using the following protocol.
(§5) Starter cultures of fungal strains to be tested were grown in 3 mL of RPMI 2% glucose media incubated at 37° C. with shaking at 200 rpm overnight. The culture media used was 900 mL H2O; 10.4 g RPMI 1640 (with L-glutamine and a pH indicator but without bicarbonate); 34.5 g MOPS and 18 g glucose. The pH of the media was adjusted to 7.0 with 1 M sodium hydroxide.
(§6) Solutions of the compound to be tested were prepared by dissolving the compound in DMSO and subsequently into media to the desired concentrations. 200 μL of compound solution was then added to the wells of the 96-well plate using a serial dilution method row-by row of the plate to give a compound concentration gradient across the plate of from 128 μg/mL to 0.25 μg/mL. The last two rows of each plate were control rows containing the culture media alone and the media plus fungi.
(§7) The fungi starter cultures were diluted 1:10 in water in cuvettes. This was then further diluted to an optical density (OD600) of 0.01 in media. 100 μL of the fungi was added to each well giving a starting concentration of fungus of 0.5-5×10^5/mL. One species of fungus was used on each plate. The plates were then held at 37° C. for 24 hours.
(§8) A plate reader was used to measure growth in each well at OD530 nm and the MIC was determined for each test compound. The MIC is defined as the lowest concentration giving rise to inhibition of ≥50% of that of the drug-free control well containing the fungus and media.

C. glabrata NCPF8018 = experiment: Candida panel MIC, serial dilution in 96-well plates; assay type: cell-based, Candida glabrata; conditions: Nakaseomyces glabratus
How it was run: as §2

C. auris 8971 = experiment: as above; assay type: cell-based, Candida auris
How it was run: as §3

C. auris 8977 = experiment: as above; assay type: cell-based, Candida auris
How it was run: as §3

C. auris 8984 = experiment: as above; assay type: cell-based, Candida auris
How it was run: as §3

C. albicans 3363 = experiment: Candida albicans panel MIC; assay type: cell-based; conditions: Table 6, Candida albicans panel
Protocol: as §4, §5, §6, §7, §8
(§9) The compounds shown in Table 6 were tested against a further panel of Candida albicans.

C. albicans 3645 = experiment: Candida albicans panel MIC; assay type: cell-based; conditions: Table 6, Candida albicans panel
Protocol: as §4, §5, §6, §7, §8, §9

C. albicans 3880 = experiment: Candida albicans panel MIC; assay type: cell-based; conditions: Table 6, Candida albicans panel
Protocol: as §4, §5, §6, §7, §8, §9

C. albicans 3881 = experiment: Candida albicans panel MIC; assay type: cell-based; conditions: Table 6, Candida albicans panel
Protocol: as §4, §5, §6, §7, §8, §9

C. albicans 3882 = experiment: Candida albicans panel MIC; assay type: cell-based; conditions: Table 6, Candida albicans panel
Protocol: as §4, §5, §6, §7, §8, §9

C. albicans 3990 = experiment: Candida albicans panel MIC; assay type: cell-based; conditions: Table 6, Candida albicans panel
Protocol: as §4, §5, §6, §7, §8, §9

C. albicans 8112 = experiment: Candida albicans panel MIC; assay type: cell-based; conditions: Table 6, Candida albicans panel
Protocol: as §4, §5, §6, §7, §8, §9

[1] = Candida albicans, Table 4, common panel, 24 hours, ≥50% inhibition
[2] = NCPF3876, Table 4, common panel, 24 hours, ≥50% inhibition, read-out: MIC C. krusei NCPF3876
[3] = NCPF3209, Table 4, common panel, 24 hours, ≥50% inhibition, read-out: MIC C. parapsilosis NCPF3209
[4] = TDG2211, Table 4, extended panel, 24 hours, ≥50% inhibition, read-out: MIC Candida auris TDG2211
[5] = TDG2506, Table 4, extended panel, 24 hours, ≥50% inhibition, read-out: MIC Candida auris TDG2506
[6] = NCPF8760, Table 4, common panel, 24 hours, ≥50% inhibition, read-out: MIC C. tropicalis NCPF8760

COc1ccc(-c2ccc(NC3CCN(CC(O)(Cn4cncn4)c4ccc(F)cc4F)CC3)cc2)cc1 (stereo not shown) [Example 4, 2-(2,4-difluorophenyl)-1-(4-((4′-methoxy-[1,1′-biphenyl]-4-yl)amino)piperidin-1-yl)-3-(1H-1,2,4-triazol-1-yl)propan-2-ol]
MIC (C. albicans NCPF3281; [1]): 0.008 µg/mL (≈ 0.0154 µM)
MIC (C. krusei NCPF3876; [2]): 0.004 to 0.125 µg/mL (≈ 0.0077 to 0.241 µM)
MIC (C. parapsilosis NCPF3209; [3]): 0.004 µg/mL (≈ 0.0077 µM)
MIC (Candida auris TDG2211; [4]): 0.006 µg/mL (≈ 0.0115 µM)
MIC (Candida auris TDG2506; [5]): ≤ 0.003 µg/mL
MIC (C. auris TDG1912): 0.06 µg/mL (≈ 0.115 µM)
MIC (C. tropicalis NCPF8760; [6]): 0.25 µg/mL (≈ 0.481 µM)
MIC (Candida auris TDG1102): 0.006 µg/mL (≈ 0.0115 µM)
MIC (Candida auris TDG2512): ≤ 0.003 µg/mL
Activity against Candida auris including resistant strains (panel of Candida species): highly active

N#Cc1ccccc1-c1ccc(NC2CCN(CC(O)(Cn3cncn3)c3ccc(F)cc3F)CC2)cc1 (stereo not shown) [Example 5, 4′-((1-(2-(2,4-difluorophenyl)-2-hydroxy-3-(1H-1,2,4-triazol-1-yl)propyl)piperidin-4-yl)amino)-[1,1′-biphenyl]-2-carbonitrile]
MIC (C. albicans NCPF3281; [1]): 0.002 to 0.004 µg/mL (≈ 0.00389 to 0.00777 µM)
MIC (C. glabrata NCPF8018; NCPF8018, Table 4, common panel, 24 hours, ≥50% inhibition, read-out: MIC C. glabrata NCPF8018): 0.125 µg/mL (≈ 0.243 µM)
MIC (C. krusei NCPF3876; [2]): 0.002 to 0.125 µg/mL (≈ 0.00389 to 0.243 µM)
MIC (C. parapsilosis NCPF3209; [3]): 0.004 µg/mL (≈ 0.00777 µM)
MIC (Candida auris TDG2211; [4]): 0.006 µg/mL (≈ 0.0117 µM)
MIC (Candida auris TDG2506; [5]): 0.006 µg/mL (≈ 0.0117 µM)
MIC (C. auris TDG1912): 0.03 µg/mL (≈ 0.0583 µM)
MIC (C. tropicalis NCPF8760; [6]): 0.008 to 0.25 µg/mL (≈ 0.0155 to 0.486 µM)
MIC (Candida auris TDG1102): ≤ 0.003 µg/mL
MIC (Candida auris TDG2512): ≤ 0.003 µg/mL
Activity against Candida auris including resistant strains (panel of Candida species): highly active

C[C@@H](c1ncncc1F)[C@](O)(Cn1cncn1)c1ccc(F)cc1F [Voriconazole, voriconazole, reference compound]
MIC (C. albicans NCPF3281; Table 6, Candida albicans panel): ≤ 0.007 µg/mL
MIC (C. glabrata NCPF8018; NCPF8018, read-out: MIC C. Glabrata NCPF8018): 1 µg/mL (≈ 2.86 µM)
MIC (C. krusei NCPF3876; NCPF3876, read-out: MIC C. Krusei NCPF3876): 0.5 to 2 µg/mL (≈ 1.43 to 5.73 µM)
MIC (C. parapsilosis NCPF3209; NCPF3209, read-out: MIC C. Parapsilosis NCPF3209): ≤ 0.25 µg/mL
MIC (Candida auris TDG2211; TDG2211, read-out: MIC C. auris 2211): > 128 µg/mL
MIC (Candida auris TDG2211; [4]): > 128 µg/mL
MIC (Candida auris TDG2506; TDG2506, read-out: MIC C. auris 2506): 2 µg/mL (≈ 5.73 µM)
MIC (Candida auris TDG2506; [5]): 2 µg/mL (≈ 5.73 µM)
MIC (C. auris TDG1912): > 32 µg/mL
MIC (C. tropicalis NCPF8760; NCPF8760, read-out: MIC C. Tropicalis NCPF8760): 4 µg/mL (≈ 11.5 µM)
MIC (Candida auris TDG1102): > 128 µg/mL
MIC (Candida auris TDG2512): > 128 µg/mL
MIC (C. auris 8971; Candidozyma auris, 8971, read-out: MIC C. auris 8971): > 32 µg/mL
MIC (C. auris 8971; Candidozyma auris, 8971, Table 4, extended panel, 24 hours, ≥50% inhibition, read-out: MIC C. auris 8971): > 32 µg/mL
MIC (C. auris 8977; Candidozyma auris, 8977, read-out: MIC C. auris 8977): 32 µg/mL (≈ 91.6 µM)
MIC (C. auris 8977; Candidozyma auris, 8977, Table 4, extended panel, 24 hours, ≥50% inhibition, read-out: MIC C. auris 8977): 32 µg/mL (≈ 91.6 µM)
MIC (C. auris 8984; Candidozyma auris, 8984, read-out: MIC C. auris 8984): > 128 µg/mL
MIC (C. auris 8984; Candidozyma auris, 8984, Table 4, extended panel, 24 hours, ≥50% inhibition, read-out: MIC C. auris 8984): > 128 µg/mL
MIC (C. albicans 3363): 1 µg/mL (≈ 2.86 µM)
MIC (C. albicans 3645): ≤ 0.0078 µg/mL
MIC (C. albicans 3880): 0.25 µg/mL (≈ 0.716 µM)
MIC (C. albicans 3881): 0.25 µg/mL (≈ 0.716 µM)
MIC (C. albicans 3882): 0.25 µg/mL (≈ 0.716 µM)
MIC (C. albicans 3990): 0.25 µg/mL (≈ 0.716 µM)
MIC (C. albicans 8112): ≤ 0.00781 µg/mL
